# Results from patent publication US9624182B2, “Compounds as lysophosphatidic acid receptor antagonists” (Amira Pharmaceuticals, Inc., priority 2009, dated 2017).
# Molecular target: T1, human LPA1 (Homo sapiens, UniProt Q92633)
# T1 construct: the full-length cDNA for human LPA1 was obtained by PCR of the reverse transcription reaction; expressed in transfected cells
# Assay: LPA1 calcium flux assay
# Assay type: cell-based
# Settings: CHO cells expressing human LPA1, stimulated with 10 nM LPA; read-out: HLPA1 Ca Flux IC50
# In short: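 Antagonism measured as block of 10 nM LPA-evoked calcium rise in stable human LPA1-CHO cells. After overnight serum-free culture and 1 h dye loading at 37 °C (buffer with 0.3% fatty-acid-free albumin), compound was added for 30 min at room temperature. Titration curves gave IC50.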
# T1 sequence (Q92633 whole entry): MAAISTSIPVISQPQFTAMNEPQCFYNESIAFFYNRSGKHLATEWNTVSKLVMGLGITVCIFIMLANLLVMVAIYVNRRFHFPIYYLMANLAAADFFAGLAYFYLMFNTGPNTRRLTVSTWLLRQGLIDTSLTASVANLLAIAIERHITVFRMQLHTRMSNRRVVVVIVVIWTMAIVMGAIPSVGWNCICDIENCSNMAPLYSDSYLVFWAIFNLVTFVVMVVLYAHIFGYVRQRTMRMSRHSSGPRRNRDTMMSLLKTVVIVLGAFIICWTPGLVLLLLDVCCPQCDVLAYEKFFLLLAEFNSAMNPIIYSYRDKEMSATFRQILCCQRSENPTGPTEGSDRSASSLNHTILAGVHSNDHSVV
row,IC50 [nM],Compound
1,1000 to 50000,"Cc1noc(-c2ccc(-c3ccc(C4(C(=O)O)CC4)cc3)cc2)c1CNC(=O)CCc1ccccc1 [Compound 1-60, 1-(4′-{3-Methyl-4-[(3-phenyl-propionylamino)-methyl]-isoxazol-5-yl}-biphenyl-4-yl)-cyclopropanecarboxylic acid]"
2,1000 to 50000,"Cc1noc(-c2ccc(-c3ccc(C4(C(=O)O)CC4)cc3)cc2)c1COC(=O)N[C@@H](C)c1ccccc1 [Compound 1-22, 1-{4′-[3-Methyl-4-((S)-1-phenyl-ethylcarbamoyloxymethyl)-isoxazol-5-yl]-biphenyl-4-yl}-cyclopropanecarboxylic acid]"
3,1000 to 50000,"Cc1noc(-c2ccc(-c3ccc(C4(C(=O)O)CC4)cc3)cc2)c1CC[S+]([O-])Cc1ccccc1 (stereo not shown) [Compound 1-84, 1-{4′-[3-Methyl-4-(2-phenylmethanesulfinyl-ethyl)-isoxazol-5-yl]-biphenyl-4-yl}-cyclopropanecarboxylic acid]"
4,> 50000,"Cc1noc(-c2ccc(-c3ccc(C4(C(=O)O)CC4)cc3)cc2)c1CCS(=O)(=O)Cc1ccccc1 [Compound 1-85, 1-{4′-[3-Methyl-4-(2-phenylmethanesulfonyl-ethyl)-isoxazol-5-yl]-biphenyl-4-yl}-cyclopropanecarboxylic acid]"
5,< 300,"Cc1noc(-c2ccc(-c3ccc(C4(C(=O)O)CC4)cc3)cc2)c1C(O)COCc1ccccc1 (single isomer, unassigned) [Compound 1-198, 1-{4′-[4-(2-Benzyloxy-1-hydroxy-ethyl)-3-methyl-isoxazol-5-yl]-biphenyl-4-yl}-cyclopropanecarboxylic acid]"
6,< 300,"Cc1noc(-c2ccc(-c3ccc(C4(C(=O)O)CC4)cc3)cc2)c1CNC(=O)OCc1ccccc1 [Compound 1-57, 1-{4′-[4-(Benzyloxycarbonylamino-methyl)-3-methyl-isoxazol-5-yl]-biphenyl-4-yl}-cyclopropanecarboxylic acid]"
7,< 300,"Cc1noc(-c2ccc(-c3ccc(C4(C(=O)O)CC4)cc3)cc2)c1C(O)COCc1ccccc1 (single isomer, unassigned) [Compound 1-199, 1-{4′-[4-(2-Benzyloxy-1-hydroxy-ethyl)-3-methyl-isoxazol-5-yl]-biphenyl-4-yl}-cyclopropanecarboxylic acid]"
8,< 300,"Cc1noc(-c2ccc(-c3ccc(C4(C(=O)O)CC4)cc3)cc2)c1COC(=O)N[C@H](C)c1ccccc1 [Compound 1-19, 1-{4′-[3-Methyl-4-((R)-1-phenyl-ethylcarbamoyloxymethyl)-isoxazol-5-yl]-biphenyl-4-yl}-cyclopropanecarboxylic acid]"
9,< 300,"Cc1noc(-c2ccc(-c3ccc(C4(C(=O)O)CC4)cc3)cc2)c1CN(C)CCc1ccccc1 [Compound 1-67, 1-(4′-{3-Methyl-4-[(methyl-phenethyl-amino)-methyl]-isoxazol-5-yl}-biphenyl-4-yl)-cyclopropanecarboxylic acid]"

# More lines, now with the values behind:
row,Compound,IC50 [nM]
1,"Cc1noc(-c2ccc(-c3ccc([C@@H]4C[C@H]4C(=O)O)cc3)cc2)c1/C=C/CCc1ccccc1 (relative stereo) [Compound 1-128, (trans)-2-{4′-[3-Methyl-4-(4-phenyl-but-1-enyl)-isoxazol-5-yl]-biphenyl-4-yl}-cyclopropanecarboxylic acid]",1000 to 50000
2,"CCCCCCCCCCCCOc1cccc(Nc2c(C)noc2-c2ccc(-c3ccc(C4(C(=O)O)CC4)cc3)cc2)n1 [Compound 1-303, 1-{4′-[4-(6-Dodecyloxy-pyridin-2-ylamino)-3-methyl-isoxazol-5-yl]-biphenyl-4-yl}-cyclopropanecarboxylic acid]",1000 to 50000
3,"Cc1noc(-c2ccc(-c3ccc(C4(C(=O)O)CC4)cc3)cc2)c1CC(=O)NC(C)c1ccccc1 (stereo not shown) [Compound 1-33, 1-(4′-{3-Methyl-4-[(1-phenyl-ethylcarbamoyl)-methyl]-isoxazol-5-yl}-biphenyl-4-yl)-cyclopropanecarboxylic acid]",< 300
4,"Cc1noc(-c2ccc(-c3ccc(C4(C(=O)O)CC4)cc3)cc2)c1NC(C)C(O)Cc1ccccc1 (single isomer, unassigned) [Compound 1-282, 1-{4′-[4-(2-Hydroxy-1-methyl-3-phenyl-propylamino)-3-methyl-isoxazol-5-yl]-biphenyl-4-yl}-cyclopropanecarboxylic acid]",< 300
5,"Cc1noc(-c2ccc(-c3cccc(C(=O)O)c3)cc2)c1NC(=O)CCc1ccccc1 [Compound 1-1, 4′-[3-Methyl-4-(3-phenyl-propionylamino)-isoxazol-5-yl]-biphenyl-3-carboxylic acid]",1000 to 50000
6,"Cc1noc(-c2ccc(-c3ccc(C4(C(=O)O)CC4)cc3)cc2)c1CCC(=O)N(C)c1ccccc1 [Compound 1-82, 1-(4′-{3-Methyl-4-[2-(methyl-phenyl-carbamoyl)-ethyl]-isoxazol-5-yl}-biphenyl-4-yl)-cyclopropanecarboxylic acid]",< 300
7,"Cc1noc(-c2ccc(-c3ccc(C4(C(=O)O)CC4)cc3)cc2)c1C(O)CSC(C)(C)C (stereo not shown) [Compound 1-275, 1-{4′-[4-(2-tert-Butylsulfanyl-1-hydroxy-ethyl)-3-methyl-isoxazol-5-yl]-biphenyl-4-yl}-cyclopropanecarboxylic acid]",< 300
8,"Cc1noc(-c2ccc(-c3ccc(CC(=O)O)cc3)cc2)c1CS(=O)(=O)CCc1ccccc1 [Compound 1-109, {4′-[3-Methyl-4-(2-phenyl-ethanesulfonylmethyl)-isoxazol-5-yl]-biphenyl-4-yl}-acetic acid]",1000 to 50000
9,"Cc1noc(-c2ccc(-c3ccc(C4(C(=O)O)CC4)cc3)cc2)c1Nc1ccccn1 [Compound 1-296, 1-{4′-[3-Methyl-4-(pyridin-2-ylamino)-isoxazol-5-yl]-biphenyl-4-yl}-cyclopropanecarboxylic acid]",> 50000
10,"Cc1noc(-c2ccc(-c3ccc(CC(=O)O)cc3)cc2)c1C(O)CSCc1cccc(C(F)(F)F)c1 (stereo not shown) [Compound 1-266, (4′-{4-[1-Hydroxy-2-(3-trifluoromethyl-benzylsulfanyl)-ethyl]-3-methyl-isoxazol-5-yl}-biphenyl-4-yl)-acetic acid]",< 300
11,"Cc1noc(-c2ccc(-c3ccc(C4(C(=O)O)CC4)cc3)cc2)c1NC(C)CCc1cccc(Cl)c1 (single isomer, unassigned) [Compound 1-239, 1-(4′-{4-[3-(3-Chloro-phenyl)-1-methyl-propylamino]-3-methyl-isoxazol-5-yl}-biphenyl-4-yl)-cyclopropanecarboxylic acid]",< 300
12,"C=CCCC(C)Nc1c(C)noc1-c1ccc(-c2ccc(C3(CC(=O)O)CC3)cc2)cc1 (stereo not shown) [Compound 1-226, (1-{4′-[3-Methyl-4-(1-methyl-pent-4-enylamino)-isoxazol-5-yl]-biphenyl-4-yl}-cyclopropyl)-acetic acid]",300 to 1000
13,"Cc1noc(-c2ccc(-c3ccc(C4(C(=O)O)CC4)cc3)cc2)c1C(O)C(=O)N(C)Cc1ccccc1 (stereo not shown) [Compound 1-258, 1-(4′-{4-[(Benzyl-methyl-carbamoyl)-hydroxy-methyl]-3-methyl-isoxazol-5-yl}-biphenyl-4-yl)-cyclopropanecarboxylic acid]",< 300
14,"Cc1noc(-c2ccc(-c3ccc(CC(=O)O)cc3)cc2)c1C(O)CCCc1ccccc1 (single isomer, unassigned) [Compound 1-174, {4′-[4-(1-Hydroxy-4-phenyl-butyl)-3-methyl-isoxazol-5-yl]-biphenyl-4-yl}-acetic acid]",< 300
15,"Cc1noc(-c2ccc(-c3ccc(C4(CC(=O)O)CC4)cc3)cc2)c1NC(C)CCc1ccccc1Cl (stereo not shown) [Compound 1-222, [1-(4′-{4-[3-(2-Chloro-phenyl)-1-methyl-propylamino]-3-methyl-isoxazol-5-yl}-biphenyl-4-yl)-cyclopropyl]-acetic acid]",< 300
16,"Cc1noc(-c2ccc(-c3ccc(CCC(=O)O)cc3)cc2)c1C(O)CCCc1ccccc1 (stereo not shown) [Compound 1-197, 3-{4′-[4-(1-Hydroxy-4-phenyl-butyl)-3-methyl-isoxazol-5-yl]-biphenyl-4-yl}-propionic acid]",< 300
17,"Cc1noc(-c2ccc(-c3ccc(C4(C(=O)O)CC4)cc3)cc2)c1CCC(=O)NC(C)(C)c1ccccc1 [Compound 1-106, 1-(4′-{3-Methyl-4-[2-(1-methyl-1-phenyl-ethylcarbamoyl)-ethyl]-isoxazol-5-yl}-biphenyl-4-yl)-cyclopropanecarboxylic acid]",1000 to 50000
18,"Cc1noc(-c2ccc(-c3ccc(C4(C(=O)O)CC4)cc3)cc2)c1Nc1ccc2ccccc2n1 [Compound 1-280, 1-{4′-[3-Methyl-4-(quinolin-2-ylamino)-isoxazol-5-yl]-biphenyl-4-yl}-cyclopropanecarboxylic acid]",< 300
19,"Cc1noc(-c2ccc(-c3ccc(C4(CC(=O)O)CC4)cc3)cc2)c1NC(C)CCc1cccc(C(F)(F)F)c1 (stereo not shown) [Compound 1-183, [1-(4′-{3-Methyl-4-[1-methyl-3-(3-trifluoromethyl-phenyl)-propylamino]-isoxazol-5-yl}-biphenyl-4-yl)-cyclopropyl]-acetic acid]",< 300
20,"Cc1noc(-c2ccc(-c3ccc(C4(C(=O)O)CC4)cc3)cc2)c1NC(=O)NC(C)(C)C [Compound 1-7, 1-{4′-[4-(3-tert-Butyl-ureido)-3-methyl-isoxazol-5-yl]-biphenyl-4-yl}-cyclopropanecarboxylic acid]",< 300
21,"Cc1noc(-c2ccc(-c3ccc(C4(C(=O)O)CC4)cc3)cc2)c1NC(=O)COc1ccccc1 [Compound 1-5, 1-{4′-[3-Methyl-4-(2-phenoxy-acetylamino)-isoxazol-5-yl]-biphenyl-4-yl}-cyclopropanecarboxylic acid]",1000 to 50000
22,"Cc1noc(-c2ccc(-c3ccc(C4(C(=O)O)CC4)cc3)cc2)c1Nc1cccc(OC(C)(C)C)n1 [Compound 1-301, 1-{4′-[4-(6-tert-Butoxy-pyridin-2-ylamino)-3-methyl-isoxazol-5-yl]-biphenyl-4-yl}-cyclopropanecarboxylic acid]",< 300
